# Experimental data published in ChEMBL document CHEMBL3407472, “Multi-parameter optimization of aza-follow-ups to BI 207524, a thumb pocket 1 HCV NS5B polymerase inhibitor. Part 2: Impact of lipophilicity on promiscuity and in vivo toxicity” (Bioorg Med Chem Lett, 2015).
# Tested on: Hepatitis C virus
# Test: Antiviral activity against Hepatitis C virus genotype 1b infected in human Huh cells assessed as inhibition of viral replication by RT-PCR-based replicon assay
# Assay type: functional, cell-based, Hepacivirus hominis
# Conditions: not given
row,SMILES,EC50 [nM]
1,CCOc1nc(NC(=O)C2(NC(=O)c3ccc4c(C5CCCC5)c(-c5ncc(Br)cn5)n(C)c4c3)CCC2)ccc1/C=C/C(=O)O,12
2,CCOc1nc(NC(=O)C2(NC(=O)c3ccc4c(C5CCCC5)c(-c5ccc(F)cn5)n(C)c4c3)CCC2)cnc1/C=C/C(=O)O,20
3,CCOc1nc(NC(=O)C2(NC(=O)c3ccc4c(C5CCCC5)c(-c5ccc(Cl)cn5)n(C)c4c3)CCC2)cnc1/C=C/C(=O)O,53
4,CCOc1nc(NC(=O)C2(NC(=O)c3ccc4c(C5CCCC5)c(-c5cnccn5)n(C)c4c3)CCC2)cnc1/C=C/C(=O)O,22
5,CCOc1nc(NC(=O)C2(NC(=O)c3ccc4c(C5CCCC5)c(-c5cncnc5)n(C)c4c3)CCC2)cnc1/C=C/C(=O)O,89
6,CCOc1nc(NC(=O)C2(NC(=O)c3ccc4c(C5CCCC5)c(-c5ncc(Br)cn5)n(C)c4c3)CCC2)cnc1/C=C/C(=O)O,30
7,CCOc1nc(NC(=O)C(C)(C)NC(=O)c2ccc3c(C4CCCC4)c(-c4ccccn4)n(C)c3c2)ccc1/C=C/C(=O)O,2
8,CCOc1nc(NC(=O)C(C)(C)NC(=O)c2ccc3c(C4CCCC4)c(-c4cnccn4)n(C)c3c2)ccc1/C=C/C(=O)O,7
9,CCOc1nc(NC(=O)C(C)(C)NC(=O)c2ccc3c(C4CCCC4)c(-c4ccccn4)n(C)c3c2)cnc1/C=C/C(=O)O,44
10,CCOc1nc(NC(=O)C(C)(C)NC(=O)c2ccc3c(C4CCCC4)c(-c4ccc(F)cn4)n(C)c3c2)cnc1/C=C/C(=O)O,18
11,CCOc1nc(NC(=O)C(C)(C)NC(=O)c2ccc3c(C4CCCC4)c(-c4cnccn4)n(C)c3c2)cnc1/C=C/C(=O)O,36
12,CCOc1nc(NC(=O)C(C)(C)NC(=O)c2ccc3c(C4CCCC4)c(-c4cncnc4)n(C)c3c2)cnc1/C=C/C(=O)O,82
13,CCOc1nc(NC(=O)C2(NC(=O)c3ccc4c(C5CCCC5)c(-c5ccccn5)n(C)c4c3)CCCC2)ccc1/C=C/C(=O)O,4
14,CCOc1nc(NC(=O)C2(NC(=O)c3ccc4c(C5CCCC5)c(-c5ccc(F)cn5)n(C)c4c3)CCCC2)ccc1/C=C/C(=O)O,4
15,CCOc1nc(NC(=O)C2(NC(=O)c3ccc4c(C5CCCC5)c(-c5ccc(Cl)cn5)n(C)c4c3)CCCC2)ccc1/C=C/C(=O)O,4
16,CCOc1nc(NC(=O)C2(NC(=O)c3ccc4c(C5CCCC5)c(-c5cnccn5)n(C)c4c3)CCCC2)ccc1/C=C/C(=O)O,5
17,CCOc1nc(NC(=O)C2(NC(=O)c3ccc4c(C5CCCC5)c(-c5cncnc5)n(C)c4c3)CCCC2)ccc1/C=C/C(=O)O,5
18,CCOc1nc(NC(=O)C2(NC(=O)c3ccc4c(C5CCCC5)c(-c5ncc(Br)cn5)n(C)c4c3)CCCC2)ccc1/C=C/C(=O)O,5
19,CCOc1nc(NC(=O)C2(NC(=O)c3ccc4c(c3)c(C)c(-c3ccc(F)cn3)n4C3CCCCC3)CCCC2)ccc1/C=C/C(=O)O,5
20,CCOc1nc(NC(=O)C2(NC(=O)c3ccc4c(C5CCCC5)c(-c5ccccn5)n(C)c4c3)CCCC2)cnc1/C=C/C(=O)O,16
21,CCOc1nc(NC(=O)C2(NC(=O)c3ccc4c(C5CCCC5)c(-c5ccc(F)cn5)n(C)c4c3)CCCC2)cnc1/C=C/C(=O)O,11
22,CCOc1nc(NC(=O)C2(NC(=O)c3ccc4c(C5CCCC5)c(-c5ccc(Cl)cn5)n(C)c4c3)CCCC2)cnc1/C=C/C(=O)O,13
23,CCOc1nc(NC(=O)C2(NC(=O)c3ccc4c(C5CCCC5)c(-c5cncnc5)n(C)c4c3)CCCC2)cnc1/C=C/C(=O)O,18
24,CCOc1nc(NC(=O)C2(NC(=O)c3ccc4c(C5CCCC5)c(-c5ncc(Br)cn5)n(C)c4c3)CCCC2)cnc1/C=C/C(=O)O,9
25,CCOc1nc(NC(=O)C2(NC(=O)c3ccc4c(c3)c(C)c(-c3ccc(F)cn3)n4C3CCCCC3)CCCC2)cnc1/C=C/C(=O)O,6
26,COc1nc(NC(=O)C2(NC(=O)c3ccc4c(C5CCCC5)c(-c5ccc(Cl)cn5)n(C)c4c3)CCC2)ccc1/C=C/C(=O)O,13
27,COc1nc(NC(=O)C2(NC(=O)c3ccc4c(C5CCCC5)c(-c5cncnc5)n(C)c4c3)CCC2)ccc1/C=C/C(=O)O,50
28,COc1nc(NC(=O)C2(NC(=O)c3ccc4c(C5CCCC5)c(-c5ncc(Br)cn5)n(C)c4c3)CCC2)ccc1/C=C/C(=O)O,9

row,SMILES,EC50 [nM]
1,COc1nc(NC(=O)C2(NC(=O)c3ccc4c(C5CCCC5)c(-c5ncc(Cl)cn5)n(C)c4c3)CCC2)cnc1/C=C/C(=O)O,32
2,COc1nc(NC(=O)C2(NC(=O)c3ccc4c(C5CCCC5)c(-c5ccccn5)n(C)c4c3)CCC2)cnc1/C=C/C(=O)O,43
3,COc1nc(NC(=O)C2(NC(=O)c3ccc4c(C5CCCC5)c(-c5ccc(F)cn5)n(C)c4c3)CCC2)cnc1/C=C/C(=O)O,37
4,COc1nc(NC(=O)C2(NC(=O)c3ccc4c(C5CCCC5)c(-c5ccc(Cl)cn5)n(C)c4c3)CCC2)cnc1/C=C/C(=O)O,56
5,COc1nc(NC(=O)C2(NC(=O)c3ccc4c(C5CCCC5)c(-c5cnccn5)n(C)c4c3)CCC2)cnc1/C=C/C(=O)O,49
6,COc1nc(NC(=O)C2(NC(=O)c3ccc4c(C5CCCC5)c(-c5cncnc5)n(C)c4c3)CCC2)cnc1/C=C/C(=O)O,185
7,COc1nc(NC(=O)C2(NC(=O)c3ccc4c(C5CCCC5)c(-c5ncc(Br)cn5)n(C)c4c3)CCC2)cnc1/C=C/C(=O)O,116
8,COc1nc(NC(=O)C(C)(C)NC(=O)c2ccc3c(C4CCCC4)c(-c4ncc(Cl)cn4)n(C)c3c2)ccc1/C=C/C(=O)O,47
9,COc1nc(NC(=O)C(C)(C)NC(=O)c2ccc3c(C4CCCC4)c(-c4ccccn4)n(C)c3c2)ccc1/C=C/C(=O)O,21
10,COc1nc(NC(=O)C(C)(C)NC(=O)c2ccc3c(C4CCCC4)c(-c4ccc(Cl)cn4)n(C)c3c2)ccc1/C=C/C(=O)O,12
11,COc1nc(NC(=O)C(C)(C)NC(=O)c2ccc3c(C4CCCC4)c(-c4cnccn4)n(C)c3c2)ccc1/C=C/C(=O)O,16
12,COc1nc(NC(=O)C(C)(C)NC(=O)c2ccc3c(C4CCCC4)c(-c4ncc(Br)cn4)n(C)c3c2)ccc1/C=C/C(=O)O,7
13,COc1nc(NC(=O)C(C)(C)NC(=O)c2ccc3c(c2)c(C)c(-c2ccc(F)cn2)n3C2CCCCC2)ccc1/C=C/C(=O)O,3
14,COc1nc(NC(=O)C(C)(C)NC(=O)c2ccc3c(C4CCCC4)c(-c4ccccn4)n(C)c3c2)cnc1/C=C/C(=O)O,50
15,COc1nc(NC(=O)C(C)(C)NC(=O)c2ccc3c(C4CCCC4)c(-c4ccc(F)cn4)n(C)c3c2)cnc1/C=C/C(=O)O,26
16,COc1nc(NC(=O)C(C)(C)NC(=O)c2ccc3c(C4CCCC4)c(-c4ccc(Cl)cn4)n(C)c3c2)cnc1/C=C/C(=O)O,44
17,COc1nc(NC(=O)C(C)(C)NC(=O)c2ccc3c(C4CCCC4)c(-c4cnccn4)n(C)c3c2)cnc1/C=C/C(=O)O,55
18,COc1nc(NC(=O)C(C)(C)NC(=O)c2ccc3c(C4CCCC4)c(-c4cncnc4)n(C)c3c2)cnc1/C=C/C(=O)O,330
19,COc1nc(NC(=O)C(C)(C)NC(=O)c2ccc3c(C4CCCC4)c(-c4ncc(Br)cn4)n(C)c3c2)cnc1/C=C/C(=O)O,23
20,COc1nc(NC(=O)C(C)(C)NC(=O)c2ccc3c(c2)c(C)c(-c2ccc(F)cn2)n3C2CCCCC2)cnc1/C=C/C(=O)O,27
21,COc1nc(NC(=O)C2(NC(=O)c3ccc4c(C5CCCC5)c(-c5ncc(Cl)cn5)n(C)c4c3)CCCC2)cnc1/C=C/C(=O)O,29
22,COc1nc(NC(=O)C2(NC(=O)c3ccc4c(C5CCCC5)c(-c5ccccn5)n(C)c4c3)CCCC2)cnc1/C=C/C(=O)O,31
23,COc1nc(NC(=O)C2(NC(=O)c3ccc4c(C5CCCC5)c(-c5ccc(F)cn5)n(C)c4c3)CCCC2)cnc1/C=C/C(=O)O,30
24,COc1nc(NC(=O)C2(NC(=O)c3ccc4c(C5CCCC5)c(-c5ccc(Cl)cn5)n(C)c4c3)CCCC2)cnc1/C=C/C(=O)O,40
25,COc1nc(NC(=O)C2(NC(=O)c3ccc4c(C5CCCC5)c(-c5cnccn5)n(C)c4c3)CCCC2)cnc1/C=C/C(=O)O,390
26,COc1nc(NC(=O)C2(NC(=O)c3ccc4c(C5CCCC5)c(-c5cncnc5)n(C)c4c3)CCCC2)cnc1/C=C/C(=O)O,575
27,COc1nc(NC(=O)C2(NC(=O)c3ccc4c(C5CCCC5)c(-c5ncc(Br)cn5)n(C)c4c3)CCCC2)cnc1/C=C/C(=O)O,38

# Tested on: Hepatitis C virus
# Test: Antiviral activity against Hepatitis C virus genotype 1a infected in human Huh cells assessed as inhibition of viral replication by RT-PCR-based replicon assay
# Assay type: functional, cell-based, Hepacivirus hominis
# Conditions: subtype 1a
row,SMILES,EC50 [nM]
1,CCOc1nc(NC(=O)C2(NC(=O)c3ccc4c(C5CCCC5)c(-c5ncc(Br)cn5)n(C)c4c3)CCC2)ccc1/C=C/C(=O)O,24
2,CCOc1nc(NC(=O)C2(NC(=O)c3ccc4c(C5CCCC5)c(-c5ccc(F)cn5)n(C)c4c3)CCC2)cnc1/C=C/C(=O)O,89

# Tested on: not listed separately
# Test: Lipophilicity, log D of the compound at pH 7.4
# Assay type: physicochemical
# Conditions: buffer
row,SMILES,logD
1,CCOc1nc(NC(=O)C2(NC(=O)c3ccc4c(C5CCCC5)c(-c5ncc(Cl)cn5)n(C)c4c3)CCC2)cnc1/C=C/C(=O)O,3.5
2,CCOc1nc(NC(=O)C2(NC(=O)c3ccc4c(C5CCCC5)c(-c5cnccn5)n(C)c4c3)CCC2)cnc1/C=C/C(=O)O,2.9
3,CCOc1nc(NC(=O)C2(NC(=O)c3ccc4c(C5CCCC5)c(-c5ncc(Br)cn5)n(C)c4c3)CCC2)cnc1/C=C/C(=O)O,4.2
4,CCOc1nc(NC(=O)C(C)(C)NC(=O)c2ccc3c(C4CCCC4)c(-c4ccccn4)n(C)c3c2)ccc1/C=C/C(=O)O,3.5
5,CCOc1nc(NC(=O)C(C)(C)NC(=O)c2ccc3c(C4CCCC4)c(-c4cnccn4)n(C)c3c2)ccc1/C=C/C(=O)O,2.9
6,CCOc1nc(NC(=O)C(C)(C)NC(=O)c2ccc3c(C4CCCC4)c(-c4ccccn4)n(C)c3c2)cnc1/C=C/C(=O)O,2.2
7,CCOc1nc(NC(=O)C(C)(C)NC(=O)c2ccc3c(C4CCCC4)c(-c4cnccn4)n(C)c3c2)cnc1/C=C/C(=O)O,2.4
8,CCOc1nc(NC(=O)C(C)(C)NC(=O)c2ccc3c(C4CCCC4)c(-c4cncnc4)n(C)c3c2)cnc1/C=C/C(=O)O,2.2
9,CCOc1nc(NC(=O)C2(NC(=O)c3ccc4c(C5CCCC5)c(-c5ccc(F)cn5)n(C)c4c3)CCCC2)ccc1/C=C/C(=O)O,> 5.3
10,CCOc1nc(NC(=O)C2(NC(=O)c3ccc4c(C5CCCC5)c(-c5ccc(Cl)cn5)n(C)c4c3)CCCC2)ccc1/C=C/C(=O)O,> 5.5
11,CCOc1nc(NC(=O)C2(NC(=O)c3ccc4c(C5CCCC5)c(-c5cnccn5)n(C)c4c3)CCCC2)ccc1/C=C/C(=O)O,4.1
12,CCOc1nc(NC(=O)C2(NC(=O)c3ccc4c(C5CCCC5)c(-c5cncnc5)n(C)c4c3)CCCC2)ccc1/C=C/C(=O)O,3.6
13,CCOc1nc(NC(=O)C2(NC(=O)c3ccc4c(C5CCCC5)c(-c5ncc(Br)cn5)n(C)c4c3)CCCC2)ccc1/C=C/C(=O)O,> 6.6
14,CCOc1nc(NC(=O)C2(NC(=O)c3ccc4c(c3)c(C)c(-c3ccc(F)cn3)n4C3CCCCC3)CCCC2)ccc1/C=C/C(=O)O,> 6.2
15,CCOc1nc(NC(=O)C2(NC(=O)c3ccc4c(C5CCCC5)c(-c5ccccn5)n(C)c4c3)CCCC2)cnc1/C=C/C(=O)O,2.6
16,CCOc1nc(NC(=O)C2(NC(=O)c3ccc4c(C5CCCC5)c(-c5ccc(F)cn5)n(C)c4c3)CCCC2)cnc1/C=C/C(=O)O,3.9
17,CCOc1nc(NC(=O)C2(NC(=O)c3ccc4c(C5CCCC5)c(-c5ccc(Cl)cn5)n(C)c4c3)CCCC2)cnc1/C=C/C(=O)O,> 4.4
18,CCOc1nc(NC(=O)C2(NC(=O)c3ccc4c(C5CCCC5)c(-c5cncnc5)n(C)c4c3)CCCC2)cnc1/C=C/C(=O)O,2.8
19,CCOc1nc(NC(=O)C2(NC(=O)c3ccc4c(C5CCCC5)c(-c5ncc(Br)cn5)n(C)c4c3)CCCC2)cnc1/C=C/C(=O)O,> 4.2
20,CCOc1nc(NC(=O)C2(NC(=O)c3ccc4c(c3)c(C)c(-c3ccc(F)cn3)n4C3CCCCC3)CCCC2)cnc1/C=C/C(=O)O,4.2
21,COc1nc(NC(=O)C2(NC(=O)c3ccc4c(C5CCCC5)c(-c5ccc(Cl)cn5)n(C)c4c3)CCC2)ccc1/C=C/C(=O)O,4.6
22,COc1nc(NC(=O)C2(NC(=O)c3ccc4c(C5CCCC5)c(-c5ncc(Br)cn5)n(C)c4c3)CCC2)ccc1/C=C/C(=O)O,3.9
23,COc1nc(NC(=O)C(C)(C)NC(=O)c2ccc3c(C4CCCC4)c(-c4ncc(Cl)cn4)n(C)c3c2)ccc1/C=C/C(=O)O,3.3
24,COc1nc(NC(=O)C(C)(C)NC(=O)c2ccc3c(C4CCCC4)c(-c4ccc(Cl)cn4)n(C)c3c2)ccc1/C=C/C(=O)O,3.9
25,COc1nc(NC(=O)C(C)(C)NC(=O)c2ccc3c(C4CCCC4)c(-c4cnccn4)n(C)c3c2)ccc1/C=C/C(=O)O,2.4
26,COc1nc(NC(=O)C(C)(C)NC(=O)c2ccc3c(C4CCCC4)c(-c4ncc(Br)cn4)n(C)c3c2)ccc1/C=C/C(=O)O,3.2
27,COc1nc(NC(=O)C(C)(C)NC(=O)c2ccc3c(C4CCCC4)c(-c4ncc(Br)cn4)n(C)c3c2)cnc1/C=C/C(=O)O,2.6
